Measured values taken from patent US6365629B1, “Fatty acid esters of aromatic alcohols and their use in cosmetic formulations” (Alto, Inc., priority 1999, dated 2002).

Assays:
[1] = tested on: rabbit eyes; assay: Eye irritation study; assay type: in vivo, albino rabbits; conditions: 0.1 ml instilled into one eye, nine rabbits
Description: The test procedure employed is described in the Appraisal of the Safety of Chemicals in Foods, Drugs and Cosmetics, published by the Association of Food and Drug Officials of the United States. Nine normal healthy albino rabbits were used for this study.
Each of the nine animals had 0.1 ml of the test material (benzyl linoleate) instilled into one eye of each test animal. The other eye was untreated and observed as a control. Two seconds after instillation of the test material, a washout was conducted in 3 of the rabbits using 20 ml. of warm water. Four seconds after test material instillation, washout was conducted in 3 additional rabbits using 20 ml. of warm water. All animals were examined frequently during the seven following days.

[2] = tested on: Skin; assay: Dermal irritation study (primary irritation of the skin); assay type: in vivo; conditions: 0.5 ml/patch, 4 patches on each of 6 rabbits
Description: The test procedure employed is described as Local Toxicity, Primary Irritation of the Skin in “Appraisal of the Safety of Chemicals in Foods, Drugs and Cosmetics” published by the Food & Drug Officials of the United States.
The dose to test the response was 0.5 ml/patch with 4 patches on each of 6 rabbits. The results indicated a primary skin irritation index of 2.375.

[3] = tested on: Rats; assay: Oral LD50; assay type: in vivo
Excerpt: The test procedure employed is described in the “Appraisal of the Safety of Chemicals in Foods, Drugs and Cosmetics” published by the Food & Drug Officials of the United States.

CCCCC/C=C\C/C=C\CCCCCCCC(=O)OCc1ccccc1 [Benzyl Linoleate]
eye irritation classification according to the reference [1]: non-irritating
irritation in rabbit eyes ([1]; with and without washout, observed seven days): no irritation
primary skin irritation index [2]: 2.375
skin irritation classification in this test system [2]: moderate irritant
Oral LD50 ([3]; rat, in vivo, po): 7.0 mL/kg
gross autopsy findings on dead animals ([3]; rats, oral LD50 study): hemorrhagic lungs, dark livers and spleens, slight hemorrhagic stomachs and intestines and pale kidneys
